Test results taken from US5683668A, “Method of generating nitric oxide gas using nitric oxide complexes” (The United States of America as represented by the …, priority 1996, dated 1997).
Like-named read-outs stand apart in the source and are kept apart here.

Tests used:
[1] = % NO yield on acid release, thermal energy analyzer (TEA); assay type: physicochemical; conditions: weight percent of the theoretical maximum, dilute aqueous HCl
Method: NO gas was generated from compounds 2, 6, 10, 11, and 14 of Example 1, as well as H2 N(CH2)3 N[N(O)NO^- ](CH2)4 NH(CH2)3 NH3^+, using the procedure set forth below. The percent NO yield was then calculated for each of these NO adducts.
The apparatus comprises a first vessel 10 having an inlet 11 and an outlet 12 and contains mineral oil (or other heavy liquid) to prevent backflow. The outlet 12 of vessel 10 is connected to a first inlet 21 of second vessel 20, which also has a second inlet 22 and an outlet 23. The second vessel 20 contained either the solid NO complex or an aqueous solution of the NO complex. An addition funnel 30 is connected to the second inlet 22 of second vessel 20 so as to provide a means of introducing dilute aqueous HCl into second vessel 20. The outlet 23 of second vessel 20 is connected to the inlet 41 of condenser 40, and the outlet 42 of condenser 40 is connected to the inlet 51 of third vessel 50. The condenser 40 and third vessel 50 function to capture any mist carried through the apparatus in the gas stream. The outlet 52 of third vessel 50 is connected to drying towers 60 and 70 which contain desiccant such as calcium chloride or molecular sieves and contain an outlet 71 for gas passage.
In use, nitrogen gas was passed through the apparatus through the inlet 11 of first vessel 10 to flush oxygen from the apparatus. Acidic solution was then introduced into second vessel 20 by way of addition funnel 30, and NO gas was generated in second vessel 20. The thus generated NO gas flowed through the outlet 23 of second vessel 20, through the condenser 40, into the third vessel 50, into the drying towers 60 and 70, and out the […].
The NO gas released through the outlet 71 of drying column 70 was fed into a thermal energy analyzer (TEA), which generates a signal proportional to the quantity of NO gas present. The yield of NO gas, as a weight percent of the theoretical maximum, obtained for each of the compounds tested is given in Table III.

[2] = NO release half-life by disappearance of UV absorption in phosphate buffer; assay type: physicochemical
Method: Ultraviolet data were obtained in 0.01M NaOH to avoid this degradation problem. […] Kinetic data were obtained by diluting stock solutions (0.01M NaOH) of each compound with pH 7.4 phosphate buffer (0.1M) as needed to produce final solutions having compound concentrations in the range of 90-120 μM.

[3] = Stability of the adducts as solids; assay type: physicochemical; conditions: applicant's statements; room temperature, closed containers or air
[4] = % NO by weight of the NO complexes; assay type: physicochemical
[5] = Equivalents of NO released at 22° C.; assay type: physicochemical
[6] = NO gas yield measured volumetrically in a gas buret; assay type: physicochemical
Method: In a separate series of experiments, the generated gas was also collected in a gas buret and the yields were measured volumetrically. Yields ranged from 70-90% of theoretical. For example, when 1.0 g of CH3 N(N2 O2^-)CH2 CH2 NH3^+ was added to 5 ml concentrated H2 SO4, 285 ml NO gas (85%) was trapped in the buret.

[7] = unless stored at -78° C.; prior art salts; cited from earlier work
[8] = Refrigerated storage stability by combustion analysis; assay type: physicochemical; conditions: refrigerator, several months
Source text: Samples of compound 11 of Example 1 were stored in a refrigerator over the course of several months.

[9] = 22° C., pH 7.4, 0.1M phosphate buffer, read-out: t1/2
[10] = phosphate buffer, buffered aqueous solution, pH 7.4, 22° C., read-out: half-life (converted)

CCNCCCN(CC)[N+]([O-])=NO [Compound 10, 1-Hydroxy-2-oxo-3-(N-ethyl-3-aminopropyl)-3-ethyl-1-1-triazene]
% NO Yield [1]: 100% | half-life [2, 9]: 1.2 h

CN(CCCN)[N+]([O-])=NO [Compound 9, 1-Hydroxy-2-oxo-3-(3-aminopropyl)-3-methyl-1-triazene]
half-life [2, 9]: 0.228 h

CC(C)N(CCCN)[N+]([O-])=NO.CC(C)NCCCN
stability as solid [3]: not stable enough to obtain combustion analytical data

CCN(CCN)[N+]([O-])=NO [Compound 7, 1-Hydroxy-2-oxo-3-(2-aminoethyl)-3-ethyl-1-triazene]
% NO By Wt. [4]: 40.5% | half-life [2, 9]: 5.55 h | half-life [2, 10]: 5.55 h

NCCN(CCN)[N+]([O-])=NO [Compound 14, 1-Hydroxy-2-oxo-3,3-di (2-aminoethyl)-1-triazene]
% NO Yield [1]: 97% | % NO By Wt. [4]: 36.8% | equivalents of NO released [5]: two equivalents | half-life [2, 9]: 56.7 h | half-life (in words) ([2]; comparison between adducts differing in R' or type): too stable to permit monitoring over a sufficient number of half-lives | half-life relative to the diethylamine/NO adduct ([2]; fold over diethylamine/NO adduct): over 200 times | half-life [2, 10]: 56 h

CNCCCCCCN(C)[N+]([O-])=NO [Compound 5, 1-Hydroxy-2-oxo-3-(N-methyl-6-aminohexyl)-3-methyl-1-triazene]
half-life [2, 9]: 0.045 h

NCCCNCCCCN(CCCN)[N+]([O-])=NO [spermine/NO adduct]
% NO Yield [1]: 95% | equivalents of NO released [5]: two equivalents

CNCCCN(C)[N+]([O-])=NO [Compound 3, 1-Hydroxy-2-oxo-3-(N-methyl-3-aminopropyl)-3-methyl-1-triazene]
half-life [2, 9]: 0.168 h | half-life [2, 10]: 0.168 h

CC(C)N(CCCN)[N+]([O-])=NO [Compound 1, 1-Hydroxy-2-oxo-3-(3-aminopropyl)-3-isopropyl-1-triazene]
half-life [2, 9]: 1.55 h

NCCCCN(CCCN)[N+]([O-])=NO [Compound 16, 1-Hydroxy-2-oxo-3-(3-aminopropyl)-3-(4-aminobutyl)-1-triazene]
stability as solid [3]: hygroscopic | half-life [2, 9]: 2.75 h

CNCCN(C)[N+]([O-])=NO [Compound 2, 1-Hydroxy-2-oxo-3-(N-methyl-2-aminoethyl)-3-methyl-1-triazene]
% NO Yield [1]: 98% | % NO By Wt. [4]: 40.5% | equivalents of NO released [5]: two equivalents | half-life [2, 9]: 0.602 h | half-life [2, 10]: 0.602 h

CCN(CC)[N+]([O-])=NO [CH3 CH2 N(N2 O2^-)CH2 CH3.Na^+, reference compound]
% NO By Wt. [4]: 38.7%

NCCCN(C1CCCCC1)[N+]([O-])=NO [Compound 13, 1-Hydroxy-2-oxo-3-(3-aminopropyl)-3-cyclohexyl-1-triazene]
half-life [2, 9]: 1.92 h

NCCCN(CCCN)[N+]([O-])=NO [Compound 15, 1-Hydroxy-2-oxo-3,3-di(3-aminopropyl)-1-triazene]
half-life [2, 9]: 4.73 h

CN(CCN)[N+]([O-])=NO [Compound 6, 1-Hydroxy-2-oxo-3-(2-aminoethyl)-3-methyl-1-triazene]
% NO Yield [1]: 110% | % NO By Wt. [4]: 45% | % NO By Wt. ([4]; listed as CH3 N(N2 O2^-)CH2 CH2 NH3^+): 44.7% | equivalents of NO released [5]: two equivalents | half-life [2, 9]: 0.667 h | half-life [2, 10]: 0.667 h | volume of NO gas trapped ([6]; 1.0 g adduct added to 5 ml concentrated H2 SO4): 285 mL | volumetric NO yield ([6]; percent of theoretical, gas buret): 85%

CC(C)NCCCN(C(C)C)[N+]([O-])=NO [Compound 12, 1-Hydroxy-2-oxo-3-(N-isopropyl-3-aminopropyl)-3-isopropyl-1-triazene]
half-life [2, 9]: 1.48 h

CC(C)N/[N+]([O-])=N/O
stability in the solid state [7]: slow decomposition even in the solid state unless stored at -78 °C

CCNCCN(CC)[N+]([O-])=NO [Compound 8, 1-Hydroxy-2-oxo-3-(N-ethyl-2-aminoethyl)-3-ethyl-1-triazene]
% NO By Wt. [4]: 34.1% | equivalents of NO released [5]: two equivalents | half-life [2, 9]: 5.45 h

CNCCCCN(C)[N+]([O-])=NO [Compound 4, 1-Hydroxy-2-oxo-3-(N-methyl-4-aminobutyl)-3-methyl-1-triazene]
half-life [2, 9]: 0.0217 h | half-life [2, 10]: 0.0217 h

CCCN(CCCN)[N+]([O-])=NO [Compound 11, 1-Hydroxy-2-oxo-3-(3-aminopropyl)-3-propyl-1-triazene]
% NO Yield [1]: 110% | equivalents of NO released [5]: two equivalents | half-life [2, 9]: 1.28 h | change in elemental composition on storage [8]: no change in elemental composition was observed

CCN(CC)[N+]([O-])=NO [DEA/NO]
stability in the solid state [7]: slow decomposition even in the solid state unless stored at -78 °C
